Data from patent US9273053B2, “Sulfur-containing heterocyclic derivative having Beta secretase inhibitory activity” (Shionogi & Co., Ltd., priority 2008, dated 2016).

Key:
CYP2C9 = CYP2C9 (Homo sapiens (Human), UniProt P11712); assay: CYP inhibition test (CYP2C9); type: in vitro ADME; conditions: pooled human hepatic microsome, tolbutamide methyl-hydroxylation
Procedure: (§1) After the centrifugation at 3000 rpm for 15 minutes, resorufin (CYP1A2 metabolite) in the supernatant was quantified by a fluorescent multilabel counter and tributamide hydroxide (CYP2CP metabolite), mephenyloin 4′ hydroxide (CYP2C19 metabolite), […] (CYP2D6 metabolite), and terfenadine alcohol (CYP3A4 metabolite) were quantified by LC/MS/MS. Addition of only DMSO being a solvent dissolving a drug to a reaction system was adopted as a control (100%), remaining activity (%) was calculated at each concentration of a test drug added as the solution and […] was calculated by reverse presumption by a logistic model using a concentration and an inhibition rate.

CYP2D6 = CYP2D6 (Homo sapiens (Human), UniProt P10635); assay: CYP inhibition test (CYP2D6); type: in vitro ADME; conditions: pooled human hepatic microsome, dextromethorphan O-demethylation
CYP2D6, sequence (P10635 whole entry): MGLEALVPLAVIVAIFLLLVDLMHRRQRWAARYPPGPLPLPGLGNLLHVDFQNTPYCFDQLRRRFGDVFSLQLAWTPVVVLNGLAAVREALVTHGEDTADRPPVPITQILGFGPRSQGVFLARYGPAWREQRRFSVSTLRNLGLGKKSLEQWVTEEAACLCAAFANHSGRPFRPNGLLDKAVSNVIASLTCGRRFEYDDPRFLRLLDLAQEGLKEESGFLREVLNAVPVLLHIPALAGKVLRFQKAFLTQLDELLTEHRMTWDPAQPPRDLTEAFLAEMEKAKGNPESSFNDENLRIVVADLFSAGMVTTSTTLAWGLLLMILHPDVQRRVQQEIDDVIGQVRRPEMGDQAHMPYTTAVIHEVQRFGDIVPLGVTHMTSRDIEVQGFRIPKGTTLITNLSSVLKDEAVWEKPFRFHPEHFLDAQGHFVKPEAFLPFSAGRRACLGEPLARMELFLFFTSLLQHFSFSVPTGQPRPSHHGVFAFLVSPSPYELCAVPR
Procedure: as §1

Recombinant human BACE-1 = Recombinant human BACE-1 (Homo sapiens (Human), UniProt P56817); assay: Assay of β-secretase-inhibiting activity; conditions: Recombinant human BACE-1 7.4 nM, substrate peptide 18 nM, pH 5.0, 30° C. for 3 hours
Recombinant human BACE-1, sequence (P56817 46-501): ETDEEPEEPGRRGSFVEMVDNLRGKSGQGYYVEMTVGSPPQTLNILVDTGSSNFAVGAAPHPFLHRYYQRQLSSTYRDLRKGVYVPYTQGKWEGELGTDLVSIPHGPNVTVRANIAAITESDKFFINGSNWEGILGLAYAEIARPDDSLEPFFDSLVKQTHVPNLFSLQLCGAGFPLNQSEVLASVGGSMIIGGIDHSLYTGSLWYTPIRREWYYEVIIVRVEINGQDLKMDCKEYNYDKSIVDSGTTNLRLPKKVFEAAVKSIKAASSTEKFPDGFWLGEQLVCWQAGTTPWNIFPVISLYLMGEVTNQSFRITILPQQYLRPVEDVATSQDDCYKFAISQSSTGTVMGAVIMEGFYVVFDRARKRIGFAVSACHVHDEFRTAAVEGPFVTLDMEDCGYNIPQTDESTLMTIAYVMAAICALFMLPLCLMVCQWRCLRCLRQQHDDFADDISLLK

CYP2C19 = CYP2C19 (Homo sapiens (Human), UniProt P33261); assay: CYP inhibition test (CYP2C19); type: in vitro ADME; conditions: pooled human hepatic microsome, mephenytoin 4′-hydroxylation
CYP2C19, sequence (P33261 whole entry): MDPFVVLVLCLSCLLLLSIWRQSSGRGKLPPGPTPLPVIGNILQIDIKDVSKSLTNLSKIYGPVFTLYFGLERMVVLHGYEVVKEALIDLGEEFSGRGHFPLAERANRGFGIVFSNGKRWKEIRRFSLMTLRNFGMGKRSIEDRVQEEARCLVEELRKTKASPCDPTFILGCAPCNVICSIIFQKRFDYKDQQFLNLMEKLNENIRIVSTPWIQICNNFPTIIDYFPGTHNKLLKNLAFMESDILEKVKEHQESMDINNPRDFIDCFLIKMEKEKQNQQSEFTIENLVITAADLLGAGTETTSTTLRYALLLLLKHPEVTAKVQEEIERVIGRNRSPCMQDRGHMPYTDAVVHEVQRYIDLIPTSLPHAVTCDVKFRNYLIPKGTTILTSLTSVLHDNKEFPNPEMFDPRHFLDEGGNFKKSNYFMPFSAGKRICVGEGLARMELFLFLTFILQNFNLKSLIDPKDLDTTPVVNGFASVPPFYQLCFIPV
Procedure: as §1

CYP1A2 = CYP1A2 (Homo sapiens (Human), UniProt P05177); assay: CYP inhibition test (CYP1A2); type: in vitro ADME; conditions: pooled human hepatic microsome, 7-ethoxyresorufin O-deethylation
CYP1A2, sequence (P05177 whole entry): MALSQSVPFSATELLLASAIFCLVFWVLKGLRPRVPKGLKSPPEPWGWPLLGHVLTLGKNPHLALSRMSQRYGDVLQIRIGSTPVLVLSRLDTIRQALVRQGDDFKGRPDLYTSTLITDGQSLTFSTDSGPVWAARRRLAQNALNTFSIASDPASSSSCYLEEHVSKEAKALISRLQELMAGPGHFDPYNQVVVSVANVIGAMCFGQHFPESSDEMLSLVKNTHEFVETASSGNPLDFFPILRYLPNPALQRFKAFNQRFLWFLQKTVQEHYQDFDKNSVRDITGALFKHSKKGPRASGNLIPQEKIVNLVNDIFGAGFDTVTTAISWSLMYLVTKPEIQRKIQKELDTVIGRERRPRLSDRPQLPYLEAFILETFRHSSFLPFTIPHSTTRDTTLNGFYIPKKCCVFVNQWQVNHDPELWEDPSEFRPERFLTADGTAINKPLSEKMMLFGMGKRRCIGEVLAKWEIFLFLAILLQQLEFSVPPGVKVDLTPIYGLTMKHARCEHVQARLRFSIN
Procedure: as §1

CYP3A4 = CYP3A4 (Homo sapiens (Human), UniProt P08684); assay: CYP inhibition test (CYP3A4); type: in vitro ADME; conditions: pooled human hepatic microsome, terfenedine hydroxylation
CYP3A4, sequence (P08684 whole entry): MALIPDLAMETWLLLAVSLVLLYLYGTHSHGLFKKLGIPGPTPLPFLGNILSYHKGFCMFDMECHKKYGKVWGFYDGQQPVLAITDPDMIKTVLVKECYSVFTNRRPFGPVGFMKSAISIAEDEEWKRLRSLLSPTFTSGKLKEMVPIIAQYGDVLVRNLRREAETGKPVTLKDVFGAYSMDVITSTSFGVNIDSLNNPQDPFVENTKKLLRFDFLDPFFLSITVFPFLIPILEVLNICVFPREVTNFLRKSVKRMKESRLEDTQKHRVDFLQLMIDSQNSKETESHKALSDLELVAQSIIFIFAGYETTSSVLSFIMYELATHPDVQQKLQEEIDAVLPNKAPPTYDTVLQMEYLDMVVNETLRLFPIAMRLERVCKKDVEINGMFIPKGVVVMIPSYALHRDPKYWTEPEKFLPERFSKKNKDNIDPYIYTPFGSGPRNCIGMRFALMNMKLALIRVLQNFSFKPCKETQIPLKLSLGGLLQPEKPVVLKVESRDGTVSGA
Procedure: as §1

[1] = biological target: human ether-a-go-go related gene (hERG) channel (Homo sapiens (Human), UniProt Q12809); assay: hERG test; type: cell-based; conditions: HEK293 cells expressing hERG channel, whole cell patch clamp, concentration not given
human ether-a-go-go related gene (hERG) channel, sequence (Q12809 whole entry): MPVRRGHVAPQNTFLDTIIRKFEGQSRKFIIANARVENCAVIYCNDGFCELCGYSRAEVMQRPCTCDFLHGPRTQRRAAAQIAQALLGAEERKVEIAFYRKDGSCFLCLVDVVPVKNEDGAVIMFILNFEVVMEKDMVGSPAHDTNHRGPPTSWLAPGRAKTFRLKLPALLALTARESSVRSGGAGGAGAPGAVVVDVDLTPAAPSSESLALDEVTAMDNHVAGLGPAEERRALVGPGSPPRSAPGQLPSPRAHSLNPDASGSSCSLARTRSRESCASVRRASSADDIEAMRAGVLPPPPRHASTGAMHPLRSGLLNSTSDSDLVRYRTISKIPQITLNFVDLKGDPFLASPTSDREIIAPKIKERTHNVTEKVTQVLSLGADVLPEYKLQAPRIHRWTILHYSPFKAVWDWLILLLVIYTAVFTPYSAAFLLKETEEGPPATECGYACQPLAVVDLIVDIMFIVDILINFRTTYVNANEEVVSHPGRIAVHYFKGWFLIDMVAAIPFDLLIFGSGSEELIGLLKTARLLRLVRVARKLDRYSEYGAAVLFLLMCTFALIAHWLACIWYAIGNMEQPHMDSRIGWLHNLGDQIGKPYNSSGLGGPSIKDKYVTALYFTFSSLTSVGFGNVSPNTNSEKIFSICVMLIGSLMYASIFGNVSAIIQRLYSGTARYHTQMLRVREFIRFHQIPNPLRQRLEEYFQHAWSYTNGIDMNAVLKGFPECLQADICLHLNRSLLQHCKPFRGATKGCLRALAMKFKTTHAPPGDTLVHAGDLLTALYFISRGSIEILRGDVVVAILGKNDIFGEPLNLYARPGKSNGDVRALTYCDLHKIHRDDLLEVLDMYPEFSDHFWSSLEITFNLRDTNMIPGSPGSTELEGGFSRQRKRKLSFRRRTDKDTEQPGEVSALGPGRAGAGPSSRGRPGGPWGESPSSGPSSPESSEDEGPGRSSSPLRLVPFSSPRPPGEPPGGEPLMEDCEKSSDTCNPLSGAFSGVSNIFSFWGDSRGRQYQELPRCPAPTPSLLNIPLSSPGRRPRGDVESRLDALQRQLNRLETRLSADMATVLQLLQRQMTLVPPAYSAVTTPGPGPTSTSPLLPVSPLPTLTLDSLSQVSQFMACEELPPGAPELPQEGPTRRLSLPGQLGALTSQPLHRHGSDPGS
From the text: For the purpose of assessing risk of an electrocardiogram QT interval prolongation, effects on delayed rectifier K+ current (IKr), which plays an important role in the ventricular repolarization process, was studied using HEK293 cells expressing human ether-a-go-go related gene (hERG) channel.
After a cell was retained at a membrane potential of −80 mV by whole cell patch clamp method using an automated patch clamp system (PatchXpress 7000A, Axon Instruments Inc.), IKr induced by depolarization pulse stimulation at +50 mV for 2 seconds and, further, repolarization pulse stimulation at −50 mV for 2 seconds was recorded. […] From the recording IKr, an absolute value of the tail peak current was measured based on the current value at the resting membrane potential using an analysis software (DataXpress ver. 1, Molecular Devices Corporation). Further, the % inhibition relative to the tail peak current before application of the test substance was calculated, and compared with the vehicle-applied group (0.1% dimethyl sulfoxide solution) to assess influence of the test substance on IKr.

CYP2C9, sequence (P11712 whole entry): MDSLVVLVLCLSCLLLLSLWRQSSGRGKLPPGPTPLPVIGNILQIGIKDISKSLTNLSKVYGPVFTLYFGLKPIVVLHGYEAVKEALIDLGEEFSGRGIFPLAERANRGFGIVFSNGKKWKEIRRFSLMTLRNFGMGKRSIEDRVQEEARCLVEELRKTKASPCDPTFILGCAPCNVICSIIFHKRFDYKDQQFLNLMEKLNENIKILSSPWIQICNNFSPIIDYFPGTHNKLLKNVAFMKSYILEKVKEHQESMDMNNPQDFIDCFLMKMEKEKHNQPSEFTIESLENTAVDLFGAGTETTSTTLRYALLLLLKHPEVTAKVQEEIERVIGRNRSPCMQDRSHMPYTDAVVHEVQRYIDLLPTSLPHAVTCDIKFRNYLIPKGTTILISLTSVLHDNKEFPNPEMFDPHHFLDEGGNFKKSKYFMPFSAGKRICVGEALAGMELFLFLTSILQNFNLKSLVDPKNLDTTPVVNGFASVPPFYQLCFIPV

Row | Compound | IC50 (CYP2C9) [µM] | IC50 (CYP2D6) [µM] | IC50 (Recombinant human BACE-1) [nM] | IC50 (CYP2C19) [µM] | IC50 (CYP1A2) [µM] | IC50 (CYP3A4) [µM] | % inhibition of IKr tail peak current [1] [%]
1 | Cc1cc(C(=O)Nc2ccc(F)c([C@]3(C)C=CSC(N)=N3)c2)n(C)c1 [Compound 35] | > 20 | > 20 | 96 | > 20 | > 20 | > 20 | –
2 | CNC(=O)c1ccc(-c2ccc(F)c([C@]3(C)C=CSC(N)=N3)c2)cn1 [Compound 92] | – | – | – | – | – | – | 7.9
3 | C=C1C[C@@](C)(c2cc(NC(=O)c3cnc(OC)cn3)cnc2C)N=C(N)S1 [Compound 102] | – | – | – | – | – | – | 2.3
